Reference: patent US20110287110A1, “COMBINATION CANCER TREATMENT” (priority 2010, published 2011)

Tests used:
[1] = tested on: bladder cancer cell lines (5637, J82, RT4, MB49, MBT2, NBT2); assay: Clonogenic survival assay, sensitivity to cisplatin in bladder cancer cell lines; type: cell-based, human and rodent; conditions: cells expressing higher basal levels of Ctr1 (5637 and MBT2) vs other lines; cisplatin 1, 5, 10, or 50 μM for 2 hours; FIG. 1
Description: Bladder cell lines (5637, J82, RT4, MB49, MBT2, and NBT2) were kindly provided by Brant A. Inman, MD. J82, NBT2, MB49, and MBT2 cells were cultured in Dulbecco's modified Eagle's medium (DMEM) containing 10% fetal bovine serum (FBS) and 1% antibiotic-antimycotic (AA; Invitrogen). RT4 and 5637 cells were cultured in McCoy's 5A modified medium and RPMI-1640 medium, respectively, containing 10% FBS and 1% AA. The WT and Ctr1−/− MEF cell lines as well as the Ctr1 antibody were kindly provided by Dennis J. Thiele, PhD. MEF cells were cultured in DMEM containing 20% FBS, 1% L-Glutamine-Penicillin-Streptomycin (Sigma), 1% sodium pyruvate, 1% nonessential amino acids, 0.5 mg/L uridine (Sigma), and 55 μM 2-mercaptoethanol. […]
Basal Ctr1 protein expression was assessed using Western blot in several different human (5637, J82, and RT4) and rodent (MB49, MBT2, and NBT2) bladder cancer cell lines. […] Samples were centrifuged at 12,000 rpm, and 100 μg of protein was separated using 4-20% SDS-PAGE, transferred to PVDF membrane and detected by chemiluminescence using anti-Ctr1 antibody (1:1000; kindly provided by Dennis J. Thiele, PhD) followed by anti-rabbit HRP antibody (1:2000; Bio-Rad). Sensitivity to cisplatin was assessed using a clonogenic survival assay. […] Cells were incubated until colonies (50+ cells) were detected (7-14 days). Colonies were then stained using crystal violet and counted.

Ctr1 = conditions: cells with Ctr1 deleted; Ishida et al. 2002, Larson et al. 2009; cited from earlier work
WT and Ctr1−/− MEFs [2] = assay: Cisplatin uptake/accumulation (intracellular platinum by ICP-AES) in MEFs; type: cell-based, mouse; conditions: cisplatin 100 μg/mL
Description: (§1) Bladder cell lines (5637, J82, RT4, MB49, MBT2, and NBT2) were kindly provided by Brant A. Inman, MD. J82, NBT2, MB49, and MBT2 cells were cultured in Dulbecco's modified Eagle's medium (DMEM) containing 10% fetal bovine serum (FBS) and 1% antibiotic-antimycotic (AA; Invitrogen). RT4 and 5637 cells were cultured in McCoy's 5A modified medium and RPMI-1640 medium, respectively, containing 10% FBS and 1% AA. The WT and Ctr1−/− MEF cell lines as well as the Ctr1 antibody were kindly provided by Dennis J. Thiele, PhD. MEF cells were cultured in DMEM containing 20% FBS, 1% L-Glutamine-Penicillin-Streptomycin (Sigma), 1% sodium pyruvate, 1% nonessential amino acids, 0.5 mg/L uridine (Sigma), and 55 μM 2-mercaptoethanol. All cells were maintained at 37° C. and at 5% CO2.
WT and Ctr1−/− MEFs were plated into T175 flasks and treated with concurrent hyperthermia (42° C.) or normothermia (37° C.) and cisplatin (100 μg/mL; APP Pharmaceuticals; 50 mg/50 mL) for 1 hour. Following this 1 hour incubation, cells were incubated with cisplatin for an additional hour at 37° C. Cells were then washed twice with PBS and harvested into 1 mL of 3N HCl and 10% TCA. Samples were digested at 70° C. for 18 hours and centrifuged at 20,800×g for 5 minutes. The supernatants were collected, and intracellular platinum accumulation was measured using inductively coupled plasma atomic emission spectroscopy (ICP-AES) at the EPA, Chapel Hill, N.C.

[3] = tested on: WT and Ctr1−/− mouse embryonic fibroblasts (MEFs); assay: Clonogenic survival assay, sensitivity to cisplatin in WT and Ctr1−/− MEFs; type: cell-based; conditions: cisplatin 1, 5, or 10 μM for 2 hours, FIG. 2
Description: as §1
Basal Ctr1 protein expression was assessed using western blot in WT and Ctr1−/− mouse embryonic fibroblasts (MEFs). Sensitivity to cisplatin was assessed using a clonogenic survival assay. Briefly, a known density of cells was plated in 6-well plates. Approximately 18-24 hours after plating, cells were exposed to cisplatin (1, 5, or 10 μM; APP Pharmaceuticals; 50 mg/50 mL) or saline for 2 hours. […] Cells were incubated until colonies (50+ cells) were detected (7-14 days). Colonies were then stained using crystal violet and counted.

WT and Ctr1−/− MEFs [4] = assay: Platinum-DNA adduct formation (immunofluorescence) in MEFs; type: cell-based, mouse; conditions: WT compared to Ctr1−/− cells, particularly following hyperthermia; 50 μg/mL cisplatin; FIG. 4
Description: as §1
WT and Ctr1−/− MEFs were plated on coverslips (80,000-90,000 cells) in 6-well plates. Approximately 24-48 hours after plating, cells were treated with or without concurrent mild hyperthermia (42° C.) or normothermia (37° C.) and 50 μg/mL cisplatin (APP Pharmaceuticals; 50 mg/50 mL) for 1 hour. Following this initial 1 hour treatment, cells were incubated for 3 additional hours at 37° C. Following treatment, platinum-DNA adducts were stained using immunofluorescence. […] Cells were imaged using a Zeiss Axio Imager widefield fluorescence microscope (Carl Zeiss MicroImaging).

Which results are given for `N.N.[Cl][Pt][Cl]` [cisplatin, cis-diamminedichloroplatinum (II)]?
Sensitivity to cisplatin (clonogenic survival) [1]: more sensitive; Cisplatin resistance (Ctr1): increased; Cisplatin uptake (Ctr1): decreased; Further increase in platinum uptake after hyperthermia (WT and Ctr1−/− MEFs [2]; Ctr1−/− cells, hyperthermia 42° C. vs normothermia 37° C.): not observed; Platinum levels (intracellular platinum accumulation) (WT and Ctr1−/− MEFs [2]; WT cells compared to Ctr1−/− cells, with and without hyperthermia (42° C.), FIG. 3): Higher platinum levels; Platinum uptake after hyperthermia (WT and Ctr1−/− MEFs [2]; WT cells, hyperthermia 42° C. vs normothermia 37° C.): further increase; Sensitivity to cisplatin (clonogenic survival) ([3]; Ctr1−/− MEFs (do not express Ctr1)): more resistant; Sensitivity to cisplatin (clonogenic survival) ([3]; WT MEFs (higher basal Ctr1)): more sensitive; Percentages of adduct-positive cells and adduct formation (WT and Ctr1−/− MEFs [4]): Higher
